Data published in patent US6555710B1, “Aminobenzophenones as inhibitors of IL-1 β and TNF-α” (Leo Pharmaceutical Products Ltd a/s Lovens Kemiske Fabrik …, priority 1999, dated 2003).

How the values were obtained:
Format in all cases: cell-based
IL-1β = test: Inhibition of IL-1β secretion in LPS stimulated peripheral blood mononuclear cells (ELISA); conditions: PBMC; LPS stimulated human peripheral blood mononuclear cells, 18 hours; read-out: The median inhibition concentration (IC50) of IL-1β
Experimental: (§1) To study the effect of the compound of the present invention in vitro the inhibition of the IL-1β and TNF-α secretion was measured using the following procedure:
(§2) Cytokine production was measured in the media from lipopolysaccharide (LPS) stimulated peripheral blood mononuclear cells. The mononuclear cells were isolated from human peripheral blood by Lymphoprep® (Nycomed, Norway) fractionation and suspended in RPMI 1640 (growth medium) with foetal calv serum (FCS, 2%), at a concentration of 5×10^5 cells/ml. The cells were incubated in 24-well tissue culture plates in 1 ml aliquots. Test compounds were dissolved in dimethylsulfoxide (DMSO, 10 mM) and were diluted with the medium. Compounds were added to the cells for 30 minutes, then LPS ([…] final concentration) was added. The plates were incubated for 18 hours, and the concentration of IL-1β and TNF-α in the medium was determined by enzyme-linked immunosorbent assays. The median inhibitory concentrations (IC50) of the compounds were calculated.

TNF-α = test: Inhibition of TNF-α secretion in LPS stimulated peripheral blood mononuclear cells (ELISA); conditions: PBMC; LPS stimulated human peripheral blood mononuclear cells, 18 hours; read-out: The median inhibition concentration (IC50) of TNF-α
Experimental: as §1, §2

[1] = tested on: Human polymorphonuclear (PMN) granulocytes; test: Inhibition of PMN superoxide secretion (ferricytochrome C reduction, TNF-α primed, fMLP stimulated); conditions: read-out: The median inhibition concentration (IC50) of PMN-superoxide
Experimental: The compounds of the present invention also show similar activities in the ability to inhibit PMN (polymorphonuclear) superoxide secretion which is also indicative of potentially useful anti-inflammatory drugs. The compounds were tested using the following procedure:
Human polymorphonuclear (PMN) granulocytes were isolated from human blood by dextran sedimentation, Lymphoprep® fractionation and hypotonic lysis of contaminating erythrocytes. Superoxide anion generation was measured as the superoxide dismutase inhibitable reduction of ferricytochrome C (Madhu, S. B. et al, Inflammation, 16, 241, (1992)). The cells were suspended in Hanks' balanced salt solution, and incubated for 10 minutes at 37° C. with test compounds. The cells were primed by the addition of TNF-α (3 ng/ml final concentration) for 10 minutes, and then ferricytochrome C, (final concentration 750 μg/ml), bovine serum albumin (BSA, final concentration 1 mg/ml) and formyl-methionyl-leucyl-phenylalanine (fMLP, final concentration 10^−7 M) were added for 3 minutes. The cells were chilled on ice, and were spun down. The optical densities in the cell-free supernatant was measured in a spectrophotometer. The median inhibitory concentration (IC50) of the compounds was calculated.

SMILES	IC50 (IL-1β) [µM]	IC50 (TNF-α) [µM]	IC50 [1] [µM]
Cc1ccccc1C(=O)c1ccc(Nc2ccc(Br)cc2NC(=O)C(F)(F)F)cc1Cl [Compound 101, 2,2,2-Trifluoro-N-[5-bromo-2-[3-chloro-4-(2-methylbenzoyl)-phenylamino]-phenyl]acetamide]	0.032	0.0063	0.013
Cc1ccccc1C(=O)c1ccc(Nc2ccc(F)cc2NC(=O)C(F)(F)F)cc1Cl [Compound 102, 2,2,2-Trifluoro-N-[2-[3-chloro-4-(2-methylbenzoyl)-phenylamino]-5-fluoro-phenyl]acetamide]	0.0063	0.0032	0.025
Cc1ccccc1C(=O)c1ccc(Nc2ccccc2NC(=O)C(F)(F)F)cc1Cl [ref. b), 2,2,2-Trifluoro-N-[2-[3-chloro-4-(2-methylbenzoyl)-phenylamino]-phenyl]acetamide, reference compound]	0.02	0.004	0.013
